Reference: patent US4404209A, “Analgesic mixture of nalbuphine and sulindac” (E. I. Du Pont de Nemours and Company, priority 1982, dated 1983)
Like-named read-outs stand apart in the source and are kept apart here.

Tested on: phenyl-p-benzoquinone induced writhing in mice
Settings: oral; for % mice blocked: 40 min
Procedure: The phenyl-p-benzoquinone induced writhing test in mice [H. Blumberg et al., Proc. Soc. […] The method simply consists of reading the % ED50 DOSE for each dose ratio on the best fit regression analysis curve from the mouse isobologram, multiplying each component by its effective species dose, and then forming the ratio of the amount of nalbuphine to sulindac. […] [E. W. Pelikan, The Pharmacologist, 1, 73 (1959).]
The mixture is sonicated at 150 watts for 1-2 minutes with an ultrasound system, then shaken for two hours at 280 oscillations/minute with 15-20 gm of glass beads. The resultant suspension contains 16 mg/ml of sulindac; all dosing suspensions are prepared by dilution of the stock suspension with the Methocel®/Tween 80® vehicle; the vehicle control is Methocel®/Tween 80®. All suspensions are prepared fresh daily.
Each mouse is used only once, then discarded.
In order to study the interaction between nalbuphine and sulindac, 5 precise dosage ratios of nalbuphine hydrochloride and sulindac are selected.

CC1=C(CC(=O)O)c2cc(F)ccc2/C1=C\c1ccc([S+](C)[O-])cc1 (centres unmarked) [Sulindac, (Z)-5-fluoro-2-methyl-1-{[4-(methylsulfinyl)phenyl]methylene}-1H-indene-3-acetic acid]
% mice blocked (nalbuphine HCl 0, sulindac 4.75 mg/kg): 20.0% | % mice blocked (nalbuphine HCl 0, sulindac 9.5 mg/kg): 20.0% | % mice blocked (nalbuphine HCl 0, sulindac 19.0 mg/kg): 46.7% | % mice blocked (nalbuphine HCl 0, sulindac 38.0 mg/kg): 96.7% | ED50 at 40 min, sulindac (95% confidence limits) (mouse, sulindac dose, alone or as component of the fixed-ratio combination): 21.2 mg/kg

Oc1ccc2c3c1O[C@H]1[C@@H](O)CC[C@@]4(O)[C@@H](C2)N(CC2CCC2)CC[C@]314 [Nalbuphine, (-)-17-(cyclobutylmethyl)-4,5α-epoxymorphinan-3,6α,14-triol]
% mice blocked (nalbuphine HCl 5.45 mg/kg, sulindac 0): 16.7% | % mice blocked (nalbuphine HCl 10.9 mg/kg, sulindac 0): 40.0% | % mice blocked (nalbuphine HCl 21.8 mg/kg, sulindac 0): 36.7% | % mice blocked (nalbuphine HCl 43.6 mg/kg, sulindac 0): 63.3% | % mice blocked (nalbuphine HCl 87.2 mg/kg, sulindac 0): 90.0% | ED50 at 40 min, nalbuphine HCl (95% confidence limits) (mouse, nalbuphine HCl dose, alone or as component of the fixed-ratio combination): 30.8 mg/kg
